In a melting point compilation (Tetko et al.; mined from patent text by program, amines drawn as free bases though some values may be those of a salt):

Compound	melting point [°C]
Cc1cccc(C(=O)NCN2CCN(c3ccccn3)CC2)c1	141 to 143
Cc1c(-c2ccc(O)c(Cl)c2)sc(C=O)c1-c1ccc(O)c(F)c1	227 to 229
CNC(=O)c1ccccc1Nc1nc(Nc2ccc3c(c2)CCCC(=O)N3C)ncc1Cl	244 to 246
Cc1c(NC(=O)CC(C)(C)C)cc2c(c1C)OC(C)(C)C2c1ccccc1OC(F)(F)F (stereo not given)	155 to 156
Cc1ccc2c(c1)cc(C(=O)O)n2CC(=O)OC(C)(C)C	174 to 176
CCC1=C(C)C(=C(C#N)C#N)C(C)=C(CC)O1	64 to 65
O=C1N[C@@H](Cc2ccccc2)C(c2ccccc2)(c2ccccc2)O1	259 to 261
NCC(O)C(Oc1ccc(C(F)(F)F)cc1)c1ccccc1 (stereo not given)	120 to 122
Cc1ccc(-n2c(-c3ccccc3)ccc2-c2ccccc2)cc1	207 to 208
COC(=O)c1cccc(-c2nc(COc3ccc(COc4nn(-c5ccccc5)cc4/C=C/c4nc(N5CCOCC5)sc4C)cc3OC)c(C)o2)c1	183 to 184
CCn1c(=O)[nH]c2cc(NC(C)=O)ccc21	247 to 249
CCOCn1cc(-c2ccnc(N)n2)c2c(OC)cc(Br)nc21	> 210
COCc1cc2c(Nc3cccc(Cl)c3)ncnc2[nH]1	226 to 230
Cc1cc(OS(=O)(=O)c2c(F)cccc2F)cc2c(C3CCN(C)CC3)cn(C)c12	139
COc1ccc(CNC(=O)C23CC4CC(CC(C4)C2)C3)cc1	91 to 94
O=C1c2ccccc2-c2nn(CCO)c3ccc(NCCNCCO)c1c23	209 to 211
CC(C)C1COCc2nc3c(N)nc4cc(OCC(=O)N5CCOCC5)ccc4c3n21 (stereo not given)	137 to 139
COC(=O)c1ccc(CO)cc1N	100 to 102
O=C(O)c1cc2c3c(c1)CCCC3CCC2	208 to 209
Cc1cc2c(cc1O)C(C)(C)CCC2(C)C	122 to 123
Clc1ccc(-c2cccs2)nn1	155
c1ccc(CSc2nc(SCc3ccccc3)n(-c3ncccn3)n2)cc1	86 to 88
CC(C)c1cccc(C(C)C)c1NC(=O)C(Cc1ccccc1)NC(=O)NCc1ccccc1 (stereo not given)	240 to 241

Compound	melting point [°C]
N=C(N)Nc1nc2c(s1)CCN(C(=O)c1ccc(NC(=O)c3ccccc3-c3ccccc3)cc1)c1ccccc1-2	> 250
COc1cc2c(cc1OCc1ccccc1)C1Cc3c(Cl)cc(OC)c(OCCO)c3CN1CC2 (stereo not given)	154
O=C1CCC(N2Cc3c(OCc4ccc(CNC5CCCCC5)cc4)cccc3C2=O)C(=O)N1 (stereo not given)	175 to 177
COc1ccc(-c2ccc3c(c2)C2(CO3)C(=O)N(Cc3ccc(Cl)s3)c3ccccc32)cn1 (stereo not given)	60 to 62
O=C1[C@@H]2C[C@H](OCc3ccc4cnccc4c3)CN2C(=O)N1c1cc(Cl)cc(Cl)c1	144
OCCOCCn1c(NC2CCNCC2)nc2ccccc21	164
CC(C)(CO)c1cc(OS(C)(=O)=O)ccc1O	122 to 124
Nc1cc(Oc2ccc(NC(=O)Nc3ccc(-c4ccccn4)c(C(F)(F)F)c3)cc2)ncn1	188 to 192
C#CCOc1ccccc1-n1cnc2cc(Nc3nnc(C)c4ccccc34)ccc21	88 to 90
CCNc1c(C(=O)O)ccc(Br)c1OCC	129 to 139
NC(Cc1ccccc1)C(=O)CCC(=O)O (stereo not given)	138 to 139
O=C(NC1(C(=O)O)Cc2ccc(Br)cc2C1)c1cn2cc(-c3ccc(Cl)cc3)ccc2n1 (stereo not given)	328
COc1ccc2[nH]c(S(=O)Cc3ncnc(N4CCCCC4)c3C)nc2c1 (stereo not given)	87 to 89
COc1cc(-c2ncc(C(F)(F)F)cc2Cl)c(F)cc1Cl	105 to 106
CCNC(=O)c1cc(N=C=S)ccc1[Si](C)(C)C	106 to 108
O=C1CCC(CSc2ccccc2)C(=O)N1CN1CCCCC1 (stereo not given)	63 to 66
COc1ccccc1CN[C@H]1CCCN(CC(=O)O)[C@H]1c1ccccc1 (relative stereo)	58
O=C(Nc1cccc2c1C(=O)OC2=O)c1ccc(Cl)s1	195
CC=CC=CCOC(=O)C1=C(C)NC(C)=C(C(=O)OC)C1c1cccc(C(F)(F)F)c1 (stereo not given)	130 to 131
CCCn1cc2c(C3C(=O)Nc4ccc(Br)cc43)nc(NCC3CCCN3)nc2n1 (stereo not given)	286 to 293
COc1cc(Nc2c(C#N)cnc3cc4cc(OC)c(OC)cc4cc23)c(C)cc1Cl	171 to 173
CC(C)n1nc(-c2c(NC(C)(C)C)nc(N)nc2-c2ccccc2)ccc1=O	202 to 204
O=C(Nc1ccc(F)c(C(F)(F)F)c1)N1COc2cc(O)ccc21	171 to 172

Compound	melting point [°C]
CC(=O)CCCN1C(=O)c2ccccc2S1(=O)=O	90 to 93
CN1CC(C(=O)COC(=O)c2ccncc2)CC2c3cccc4[nH]cc(c34)CC21 (stereo not given)	158 to 161
CCCCc1nc2sc(Cl)cc2c(=O)n1CCC	67 to 69
CC(C)N1C(=O)C(N=[N+]=[N-])N=C(c2ccccc2)c2ccccc21 (stereo not given)	178 to 179
CCNC(=O)C1=CSC(Cl)N1[Si](C)(C)C (stereo not given)	101 to 103
O=C1c2ccccc2C(O)N1CCCOc1ccncc1 (stereo not given)	124 to 125
COc1cc(COc2nn(-c3ccccc3)cc2/C=C/C=O)ccc1OCc1nc(-c2ccco2)oc1C	134 to 135
CC1(C)[C@@H](C=C2CC2)[C@@H]1C(=O)O (relative stereo)	85
O=c1[nH]c2cc(Cl)cc(Cl)c2c(=O)n1Cc1ccccc1Cl	193 to 198
CC(C)C1SCC(=O)CC1=O (stereo not given)	71
FC(F)Oc1cc(Oc2ccnc(-c3cnccn3)n2)ccn1	128 to 129
O=C1NC(C(Cl)(Cl)Cl)Nc2ccc([N+](=O)[O-])cc21 (stereo not given)	278 to 280
CN(C)c1ccc2sc(S(N)(=O)=O)cc2c1	197 to 199
COc1cc(-c2n[nH]c(N=C(c3ccccc3)c3ccccc3)n2)c(OC)cc1C	228
O=CN(Cc1cccs1)C1(c2ccc(Cl)cc2)CCC1	114 to 119
O=C(O)[C@@H]1CCc2ccc(O)cc2O1	77 to 79
OC(CNC1CC1)c1cccc(F)c1 (stereo not given)	57.8 to 60
C=C[C@]1(C)CCc2c(C)c(OCc3ccccc3)c(C)c(C)c2O1	63 to 66
CC(C)(C)OC(=O)c1ccc(O)c(Br)c1	106 to 108
O=C1CN=C(c2ccccc2)O1	83 to 86
COc1ccnc(CSc2nc3cc(OC(F)(F)C(F)F)ccc3[nH]2)c1OC	98 to 102
N#Cc1cccc(NC(=O)CN2CCC(Cc3ccccc3)CC2)c1	88 to 90

More lines, now with the values ahead:

melting point [°C]	Compound
222 to 224	C=CCc1ccc2oc(C(=O)O)cc(=O)c2c1O
190	COc1cccc(-c2nn3c(c2C(=O)O)-c2ccccc2CC3)c1
85.2 to 86.1	CC(C)=CCCC(C)=CCOc1ccc(C(=O)NCCc2ccncc2)cc1
118 to 119	Cc1ccc(S(=O)(=O)N(c2ccc(C#N)cc2Cl)C(C)C)cc1
190	O=C1c2ccccc2C(=O)N1Oc1ccc([N+](=O)[O-])cc1C(F)(F)F
148 to 149	Cc1c(NC(=O)c2cccc(OCc3ccccc3)c2)ccc2cc(CN3CCCC3)cnc12
> 260	Cc1ccc(Oc2ccc(C(=N)NN)cc2)c(O)c1
172 to 175	CS(=O)(=O)c1ccc(-c2cccn2-c2ccc3c(c2)OCO3)cc1
232 to 235	CC(=O)NNc1ccnc2c(NC(=O)c3ccccc3[N+](=O)[O-])cccc12
112 to 114	C#CCOC(=O)Oc1ccc(S(=O)(=O)c2ccc(OC(=O)OCC#C)cc2)cc1
221 to 223	CC1(C)OC(=S)Nc2ccc(-c3ccc(F)cc3)cc21
44 to 45	COC(=O)c1ccc(C(C)(C)CO)cc1
268 to 272	Cc1ccc(C(=O)C2=C(O)C(=O)N(c3ccc(C)nn3)C2c2ccc(OC(C)C)cc2)cc1 (stereo not given)
176 to 178	COC(=O)c1ccc(C(=O)NS(=O)(=O)c2ccc(CCNC(=O)CC(C)C)cc2)cn1
148 to 150	CCC(=O)N(CCCc1ccccc1)C1CCc2c(cccc2NC(C)=O)C1 (stereo not given)
164 to 165	CCC(=O)Nc1ccc2oc3c(c2c1)CCCC3

melting point [°C]	Compound
130 to 132	COC1=NC(c2cccc([N+](=O)[O-])c2)C(C(=O)OC(C)C)=C(C)N1 (stereo not given)
145 to 147	CC(=O)Oc1ccc(C2COc3cc(OC(C)=O)c(OC(C)=O)cc3C2)cc1 (stereo not given)
159 to 160	COc1ccc(C=CC(=O)Nc2c(-c3ccccc3C)c3cc4c(cc3oc2=O)CCC4)cc1OC
228 to 231	CCCC(=O)c1c[nH]c2cc(COC(=O)c3ccccc3)ccc2c1=O
163 to 164	CCCc1c(OC(C(=O)O)c2ccc(Cl)cc2)ccc(C(C)=O)c1O (stereo not given)
155	CCOC(=O)Nc1cccc2c1CN(C)CC2c1ccc(Cl)cc1 (stereo not given)
161 to 162	CS(=O)(=O)Nc1ccc(OC(=O)c2ccc(CCBr)cc2)cc1
122 to 127	COC(=O)CCc1cc2cc(C(C)=O)ccc2n1S(=O)(=O)c1ccccc1
224 to 227	O=C(NCc1ccc(Cl)cc1)c1cn(-c2ccccn2)c2oc(CCl)cc2c1=O
145 to 146	Cc1nnc(-c2ccc3occ(-c4cccc(Cl)c4)c3c2)o1
240	O=C(NC(Cc1ccccc1)C(=O)O)c1ccc(-c2ccc(OCc3ccccc3)cc2)nc1 (stereo not given)
159 to 161	CCCn1ccc(-c2ccc(C(=O)N3Cc4cccn4Cc4ccccc43)cc2)n1
103 to 105	COc1cccc(OCC(O)c2cccc(OCc3ccc4ccccc4n3)c2)c1 (stereo not given)
73	CCCc1oc2ccc([N+](=O)[O-])cc2c1C(=O)c1ccc(OC)cc1
158 to 159	CC1(C)OC(c2ccc(S(C)(=O)=O)cc2)=C(c2cccc([N+](=O)[O-])c2)C1=O
154 to 156	Cc1ccc(N)c(OCCOc2cc(C(=O)OC(C)(C)C)ccc2N)c1
